{"source": "patent US20160193216A1", "about": "(Nimbus Iris, Inc., priority 2012, published 2016)", "target": "T1, IRAK4 (Homo sapiens, UniProt Q9NWZ3)", "T1 sequence (Q9NWZ3 1-460)": "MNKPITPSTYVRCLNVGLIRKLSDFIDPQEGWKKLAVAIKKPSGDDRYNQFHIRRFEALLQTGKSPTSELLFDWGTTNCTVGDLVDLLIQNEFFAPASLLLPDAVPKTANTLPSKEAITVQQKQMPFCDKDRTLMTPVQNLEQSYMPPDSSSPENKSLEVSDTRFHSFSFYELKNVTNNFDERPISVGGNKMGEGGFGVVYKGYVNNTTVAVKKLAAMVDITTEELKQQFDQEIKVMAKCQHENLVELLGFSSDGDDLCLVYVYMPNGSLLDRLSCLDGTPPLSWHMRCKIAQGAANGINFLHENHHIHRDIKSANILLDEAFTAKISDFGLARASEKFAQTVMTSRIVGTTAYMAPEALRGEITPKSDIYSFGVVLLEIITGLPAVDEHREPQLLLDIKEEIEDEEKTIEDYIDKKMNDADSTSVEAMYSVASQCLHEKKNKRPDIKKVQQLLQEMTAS", "experiment": "IRAK-4 activity inhibition assay (Caliper)", "assay_type": "biochemical", "settings": "37 μM ATP, 3.5 nM IRAK4"}
{"smiles": "O=C(O)[C@H]1CCc2sc3ncnc(O[C@H]4CC[C@H](N5CCOCC5)CC4)c3c2C1", "note": "[Compound I-234, (12S)-3-[[(1r,4r)-4-(morpholin-4-yl)cyclohexyl]oxy]-8-thia-4,6-diazatricyclo[7.4.0.0[2,7]]trideca-1(9),2(7),3,5-tetraene-12-carboxylic acid]", "values": [{"measurement": "IC50", "value": "< 5", "unit": "µM"}]}
{"smiles": "COCCC1CCc2sc3ncnc(O[C@H]4CC[C@H](N(C)C)CC4)c3c21", "note": "(stereo partly shown) [Compound I-32, 4-[[3-(2-methoxyethyl)-7-thia-9,11-diazatricyclo[6.4.0.0[2,6]]dodeca-1(8),2(6),9,11-tetraen-12-yl]oxy]-N,N-dimethylcyclohexan-1-amine]", "values": [{"measurement": "IC50", "value": "< 5", "unit": "µM"}]}
{"smiles": "CN(C)[C@H]1CC[C@H](Nc2ncnc3sc4c(c23)C(C(=O)O)CC4)CC1", "note": "(stereo partly shown) [Compound I-5, 4-(((1s,4s)-4-(dimethylamino)cyclohexyl)amino)-6,7-dihydro-5H-cyclopenta[4,5]thieno[2,3-d]pyrimidine-5-carboxylic acid]", "values": [{"measurement": "IC50", "value": "5 to 20", "unit": "µM"}]}
{"smiles": "CNC(=O)N1CCc2sc3ncnc(O[C@H]4CC[C@H](N(C)C)CC4)c3c2C1", "note": "[Compound I-169, 3-[[4-(dimethylamino)cyclohexyl]oxy]-N-methyl-8-thia-4,6,12-triazatricyclo[7.4.0.0[2,7]]trideca-1(9),2(7),3,5-tetraene-12-carboxamide]", "values": [{"measurement": "IC50", "value": "< 5", "unit": "µM"}]}
{"smiles": "CC(=O)N1CCc2sc3ncnc(O[C@H]4CC[C@H](N)CC4)c3c2C1", "note": "[Compound I-197, 1-[3-[(4-aminocyclohexyl)oxy]-8-thia-4,6, 12-triazatricyclo[7.4.0.0[2,7]]trideca-1(9),2,4,6-tetraen-12-yl]ethan-1-one]", "values": [{"measurement": "IC50", "value": "5 to 20", "unit": "µM"}]}
{"smiles": "COC(=O)N1Cc2sc3ncnc(O[C@H]4CC[C@H](N5CCOCC5)CC4)c3c2C1", "note": "[Compound I-199, methyl 12-[[4-(morpholin-4-yl)cyclohexyl]oxy]-7-thia-4,9, 11-triazatricyclo[6.4.0.0[2,6]]dodeca-1(12),2(6),8, 10-tetraene-4-carboxylate]", "values": [{"measurement": "IC50", "value": "20 to 50", "unit": "µM"}]}
{"smiles": "CN(C)[C@H]1CC[C@H](Oc2ncnc3sc4c(c23)CN(C(=O)CCO)CC4)CC1", "note": "[Compound I-195, 1-(3-[[4-(dimethylamino)cyclohexyl]oxy]-8-thia-4,6, 12-triazatricyclo[7.4.0.0[2,7]]trideca-1(9),2,4,6-tetraen-12-yl)-3-hydroxypropan-1-one]", "values": [{"measurement": "IC50", "value": "5 to 20", "unit": "µM"}]}
{"smiles": "CN(C)[C@H]1CC[C@H](Oc2ncnc3sc4c(c23)[C@@H](CC(O)c2ncco2)CC4)CC1", "note": "(mixture of isomers) [Compound I-60, 2-[(3R)-12-[[4-(dimethylamino)cyclohexyl]oxy]-7-thia-9,11-diazatricyclo[6.4.0.0[2,6]]dodeca-1(8),2(6),9,11-tetraen-3-yl]-1-(1,3-oxazol-2-yl)ethan-1-ol]", "values": [{"measurement": "IC50", "value": "< 5", "unit": "µM"}]}
{"smiles": "CC[C@H](C[C@H]1CCc2sc3ncnc(N[C@H]4CC[C@H](N(C)C)CC4)c3c21)OC", "note": "[Compound I-147, (1r,4R)-N1-((R)-5-((R)-2-methoxybutyl)-6,7-dihydro-5H-cyclopenta[4,5]thieno[2,3-d]pyrimidin-4-yl)-N4,N4-dimethylcyclohexane-1,4-diamine]", "values": [{"measurement": "IC50", "value": "< 5", "unit": "µM"}]}
{"smiles": "CN(C)[C@H]1CC[C@H](Nc2ncnc3sc4c(c23)C(CC(=O)N2CC[C@@H](O)C2)CC4)CC1", "note": "(stereo partly drawn) [Compound I-16, 2-(4-(((1r,4R)-4-(dimethylamino)cyclohexyl)amino)-6,7-dihydro-5H-cyclopenta[4,5]thieno[2,3-d]pyrimidin-5-yl)-1-((R)-3-hydroxypyrrolidin-1-yl)ethanone]", "values": [{"measurement": "IC50", "value": "> 50", "unit": "µM"}]}
{"smiles": "CN(CCF)[C@H]1CC[C@H](Oc2ncnc3sc4c(c23)[C@@H](CC(N)=O)CC4)CC1", "note": "[Compound I-125, 2-((R)-4-(((1r,4R)-4-((2-fluoroethyl)(methyl)amino)cyclohexyl)oxy)-6,7-dihydro-5H-cyclopenta[4,5]thieno[2,3-d]pyrimidin-5-yl)acetamide]", "values": [{"measurement": "IC50", "value": "< 5", "unit": "µM"}]}
{"smiles": "CCOC(=O)C1CCc2sc3ncnc(N[C@H]4CC[C@H](N(C)C)CC4)c3c21", "note": "(stereo partly shown) [Compound I-1]", "values": [{"measurement": "IC50", "value": "5 to 20", "unit": "µM"}]}
{"smiles": "NC(=O)[C@@H]1CCc2sc3ncnc(N[C@H]4CC[C@H](N5CCOCC5)CC4)c3c2C1", "note": "[Compound I-208, (12R)-3-[[4-(morpholin-4-yl)cyclohexyl]amino]-8-thia-4,6-diazatricyclo[7.4.0.0[2,7]]trideca-1(9),2(7),3,5-tetraene-12-carboxamide]", "values": [{"measurement": "IC50", "value": "< 5", "unit": "µM"}]}
{"smiles": "CN(C)[C@H]1CC[C@H](Oc2ncnc3sc4c(c23)[C@@H](CC(=O)NCC(N)=O)CC4)CC1", "note": "[Compound I-58, N-(2-amino-2-oxoethyl)-2-((R)-4-(((1r,4R)-4-(dimethylamino)cyclohexyl)oxy)-6,7-dihydro-5H-cyclopenta[4,5]thieno[2,3-d]pyrimidin-5-yl)acetamide]", "values": [{"measurement": "IC50", "value": "< 5", "unit": "µM"}]}
{"smiles": "CN(C)[C@H]1CC[C@H](Oc2nc(Nc3ccc(N4CCNCC4)cc3)nc3sc4c(c23)C(CC(N)=O)CC4)CC1", "note": "(mixture of isomers) [Compound I-205, 2-(12-[[4-(dimethylamino)cyclohexyl]oxy]-10-[[4-(piperazin-1-yl)phenyl]amino]-7-thia-9, 11-diazatricyclo[6.4.0.0[2,6]]dodeca-1(12),2(6),8, 10-tetraen-3-yl)acetamide]", "values": [{"measurement": "IC50", "value": "< 5", "unit": "µM"}]}
{"smiles": "CC(O)C[C@@H]1CCc2sc3ncnc(O[C@H]4CC[C@H](N5CCOCC5)CC4)c3c2C1", "note": "(stereo partly drawn) [Compound I-182, 1-((R)-4-(((1r,4R)-4-morpholinocyclohexyl)oxy)-5,6,7,8-tetrahydrobenzo[4,5]thieno[2,3-d]pyrimidin-6-yl)propan-2-ol]", "values": [{"measurement": "IC50", "value": "< 5", "unit": "µM"}]}
{"smiles": "CN(C)[C@H]1CC[C@H](Nc2ncnc3sc4c(c23)C(CC(=O)N2CC[C@H](O)C2)CC4)CC1", "note": "(stereo partly drawn) [Compound I-15, 2-(4-(((1r,4S)-4-(dimethylamino)cyclohexyl)amino)-6,7-dihydro-5H-cyclopenta[4,5]thieno[2,3-d]pyrimidin-5-yl)-1-((S)-3-hydroxypyrrolidin-1-yl)ethanone]", "values": [{"measurement": "IC50", "value": "> 50", "unit": "µM"}]}
{"smiles": "NC(=O)[C@@H](O)C[C@H]1CCc2sc3ncnc(O[C@H]4CC[C@H](N5CCCC5)CC4)c3c21", "note": "[Compound I-226, (S)-2-hydroxy-3-((R)-4-(((1r,4R)-4-(pyrrolidin-1-yl)cyclohexyl)oxy)-6,7-dihydro-5H-cyclopenta[4,5]thieno[2,3-d]pyrimidin-5-yl)propanamide]", "values": [{"measurement": "IC50", "value": "< 5", "unit": "µM"}]}
{"smiles": "NC(=O)[C@H](O)C[C@H]1CCc2sc3ncnc(O[C@H]4CC[C@H](N)CC4)c3c21", "note": "[Compound I-138, (R)-3-((R)-4-(((1 r,4R)-4-aminocyclohexyl)oxy)-6,7-dihydro-5H-cyclopenta[4,5]thieno[2,3-d]pyrimidin-5-yl)-2-hydroxypropanamide]", "values": [{"measurement": "IC50", "value": "< 5", "unit": "µM"}]}
{"smiles": "CN(CCO)C(=O)CC1CCc2sc3ncnc(N[C@H]4CC[C@H](N(C)C)CC4)c3c21", "note": "(stereo partly shown) [Compound I-30, 2-(12-[[4-(dimethylamino)cyclohexyl]amino]-7-thia-9,11-diazatricyclo[6.4.0.0̂[2,6]]dodeca-1(8),2(6),9,11-tetraen-3-yl)-N-(2-hydroxyethyl)-N-methylacetamide]", "values": [{"measurement": "IC50", "value": "20 to 50", "unit": "µM"}]}
{"smiles": "CC1(C(N)=O)CCc2sc3ncnc(O[C@H]4CC[C@H](N5CCOCC5)CC4)c3c2C1", "note": "(stereo partly shown) [Compound I-237, 12-methyl-3-[[(1r,4r)-4-(morpholin-4-yl)cyclohexyl]oxy]-8-thia-4,6-diazatricyclo[7.4.0.0[2,7]]trideca-1(9),2,4,6-tetraene-12-carboxamide]", "values": [{"measurement": "IC50", "value": "< 5", "unit": "µM"}]}
{"smiles": "NC(=O)CC[C@@H]1CCCc2sc3ncnc(O[C@H]4CC[C@H](N)CC4)c3c21", "note": "[Compound I-154, 3-((S)-4-(((1r,4S)-4-aminocyclohexyl)oxy)-5,6,7,8-tetrahydrobenzo[4,5]thieno[2,3-d]pyrimidin-5-yl)propanamide]", "values": [{"measurement": "IC50", "value": "5 to 20", "unit": "µM"}]}
